This is an account of results in patent US5861481A, “Peptide lung surfactants and therapeutic combinations” (Merrell Pharmaceuticals Inc., priority 1997, dated 1999).

In this assay the test system is adult rat lavaged lungs. Nature of the assay: Isolated rat lavaged lung model (pressure-volume curves). As to the method:
Preparation of Artificial Surfactants. For triplicate samples of the synthetic lung surfactants 75 mg of DPPC (L-α-dipalmitoylphosphatidylcholine; >99% pure; Avanti Polar Lipids, Birmingham, Ala.) in 1 ml of chloroform were dried under a stream of nitrogen and placed in a lyophilizer overnight to remove traces of organic solvent. To the dry lipid mixture were added 9 ml of water. The preparation was incubated for 1 hr at 45°-50° C. with occasional vortexing. Then, in some samples, […] of dry test peptide were added to the aqueous preparation. The preparations were mildly sonicated with and without peptide in a cleaning bath sonicator (Branson 1200) at 45°-50° C. for 2 h to promote peptide dispersion and peptide-lipid interactions. The resulting lipid-peptide mixtures were divided into three parts, lyophilized and stored at -20° C.
The experimental procedures for animal preparation, pressure-volume curve registration and lung lavage have been described by the rat lung model (Ikegami, et al., (1979) Pediatr. Res. 13, 777-780) as modified by McLean et al., Am. J. Physiol. (1992), L292-L300. Briefly, the lungs of adult rats were suspended in 0.9% saline at 37° C. were connected to a water manometer and an air-filled syringe by a T-tube. The deflation limb of a pressure-volume curve was recorded prior to lavage, after extensive lavage with 0.9% NaCl, 10 mM HEPES, pH 7.4 and after administration of surfactant mixtures in 2 ml of 0.9% NaCl, 10 mM HEPES buffer, pH 7.40. The deflation limbs of the pressure-volume (P-V) curves in adult rat lungs were analyzed by calculating the total lung capacities (% TLC) at 5 and 10 cm H2 O pressure (PC5 and PC10). The per cent of total lung capacities at 5 and 10 cm of H2 O (PC5 and PC10) were measured after addition of the synthetic lung surfactants to adult rat lavaged lungs at a dose of 25 mg of lipid (32 umoles) and 1 mg of peptide. Restorations are based on PC5. […] Comparisons were based on restoration,i.e. for PC5, ([…])×100%/(PC5.sbsb.(sufficient) -PC5.sbsb.(deficient)) and made by one-way analysis of variance using the GLM procedure with specific contrasts of the means (SAS Institute Inc., Cary, N.C.).
References, consisting of DPPC alone and dog lung surfactant, respectively,were employed as reference standards: Reference I was prepared as follows. DPPC was purchased from Avanti Polar Lipids. 25 mg of DPPC in chloroform was dried under a stream of nitrogen and lyophilized to remove traces of organic solvent. To the dry lipid mixture was added 3 ml of water. The preparation was incubated at 45° C. for 1 hour with ultrasonication in a bath sonicator. The lipid was lyophilized, stored at 4° C. for up to one week and mixed with 9 ml of 0.9% NaCl, 20 mM HEPES buffer, pH 7.40. […]

[1] abbreviates: deflation limb of P-V curve, adult rat lavaged lungs, dose 25 mg lipid and 1 mg peptide, mean ± S.E.

Each structure is given as a SMILES string.

For `CCCCCCCCCCCCCCCC(=O)OC[C@H](COP(=O)([O-])OCC[N+](C)(C)C)OC(=O)CCCCCCCCCCCCCCC` [Reference I, L-α-dipalmitoylphosphatidylcholine], the “effect on improving the compliance of the rat lung” value (adult rat lung model, stated in words) was “no effect”. Also, the “Restoration (%)” value (based on PC5 relative to sufficient and deficient lungs, mean ± S.E.) is given as -11 ± 8%. Further, under setting [1], the “PC5 (% TLC), per cent of total lung capacity at 5 cm H2O” value is recorded as 13 ± 1 % TLC and the “PC10 (% TLC), per cent of total lung capacity at 10 cm H2O” value was determined as 31 ± 2 % TLC.
